Patent publication US20240270821A1, “GIP/GLP1/GCG TRI-RECEPTOR AGONISTS AND USES THEREOF” (priority 2023, published 2024)
Where two headings read alike, the source gives them in different places. Marks after values point to notes of the source that are not given here. Starred links: 1 amine or outer side, 2 acyl side, 3 side chain; linkers in the order of their positions; H or OH if unused. Non-standard residues stand in square brackets, D forms with d. Residues, ends and D or L forms follow the SMILES beside them. Groups on a side chain read outwards from the residue. No end group written: not given here. *: point of attachment. C18 diacid = O=C(O)CCCCCCCCCCCCCCCCC(=O)*; αMePhe(2-F) = C[C@](N)(Cc1ccccc1F)C(=O)O; γGlu = O=C(O)[C@H](CCC(=O)[*:2])N[*:1]; αMe4Pal = C[C@](N)(Cc1ccncc1)C(=O)O; αMeY = C[C@](N)(Cc1ccc(O)cc1)C(=O)O; 4Pal = N[C@@H](Cc1ccncc1)C(=O)O; αMeL = CC(C)C[C@](C)(N)C(=O)O; αMeS = C[C@](N)(CO)C(=O)O; Orn = NCCC[C@H](N)C(=O)O; AEEA = NCCOCCOCC(=O)O; Aib = CC(C)(N)C(=O)O

Assays:
hGLP-1R [1] = target: T1, hGLP-1R (Homo sapiens, UniProt P43220); test: Functional cAMP activity in the presence of 1% HSA; assay type: cell-based; settings: read-out: cAMP Rel EC50, hGLP-1R
in vivo = test: in vivo; set-up: species or system Sprague Dawley rats; settings: male, Sprague Dawley, rat, 4 mg/kg
Description: The pharmacokinetics of the exemplary analogs are evaluated following a single subcutaneous (SC) administration of 10 nmol/kg (dissolved in 40 mM Tris pH8) or single 4 mg/kg (mixed with 250 mM sodium decanoate/C10 in 40 mM Tris pH8) intrajejunal (IJ) administration to male Sprague Dawley rats. Blood samples are collected over 96 hours following SC administration and 72 hours following IJ dosing, and resulting individual plasma concentrations are used to calculate pharmacokinetic parameters. Peptide plasma (K3 EDTA) concentrations are determined using a qualified LC/MS method that measured the intact mass of the analog. Each peptide and an analog as an internal standard are extracted from rat plasma using methanol. A High Resolution Instrument was used for LC/MS detection.

human GcgR = human GcgR (Homo sapiens, UniProt P47871); test: Functional cAMP activity in the presence of 1% HSA; assay type: cell-based; settings: read-out: cAMP Rel EC50, hGcgR
[2] = Body weight in diet-induced obese C57BL/6 mice; assay type: in vivo; settings: 10 nmol/kg SC QD, percent of starting weight, DIO mice, mean ± SEM n=5
Procedure, shortened: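 Daily weighing gave body weight as percent of starting value (mean±SEM, n=5) over 9-16 days of SC dosing, once daily or every 3 days, shortly before lights-off. Animals were weight-randomized male C57BL/6 DIO mice, 41-50 g, fed ad libitum on a calorie-rich diet.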

hGLP-1R [3] = target: T1, hGLP-1R; test: Functional cAMP activation in the presence of 0.1% casein (no HSA); assay type: cell-based; settings: read-out: Relative cAMP EC50, hGLP-1R;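 as to Relative cAMP EC50, hGIPR: intracellular cAMP rise after 30 min at 37 °C read by HTRF against a standard curve, scaled between buffer alone (0%) and top control ligand concentration (100%), four-parameter fit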;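 as to Relative cAMP EC50, hGLP-1R: intracellular cAMP rise after 30 min at 37 °C read by HTRF, normalized between buffer only (0%) and maximal control ligand (100%), four-parameter variable-slope fit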;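 as to Relative cAMP EC50, hGcgR: intracellular cAMP rise after 30 min at 37 °C, read by HTRF against a cAMP standard curve, scaled from buffer only (0%) to maximal control ligand response (100%)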
hGcgR = hGcgR (Homo sapiens, UniProt P47871); test: as above; assay type: cell-based; settings: read-out: Relative cAMP EC50, hGcgR;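 also: intracellular cAMP rise after 30 min at 37 °C, read by HTRF against a cAMP standard curve, scaled from buffer only (0%) to maximal control ligand response (100%)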
hGIPR [4] = target: T2, hGIPR (Homo sapiens, UniProt P48546); test: Functional cAMP activity in the presence of 1% HSA; assay type: cell-based; settings: read-out: cAMP Rel EC50, hGIPR
T2 sequence (P48546 22-466): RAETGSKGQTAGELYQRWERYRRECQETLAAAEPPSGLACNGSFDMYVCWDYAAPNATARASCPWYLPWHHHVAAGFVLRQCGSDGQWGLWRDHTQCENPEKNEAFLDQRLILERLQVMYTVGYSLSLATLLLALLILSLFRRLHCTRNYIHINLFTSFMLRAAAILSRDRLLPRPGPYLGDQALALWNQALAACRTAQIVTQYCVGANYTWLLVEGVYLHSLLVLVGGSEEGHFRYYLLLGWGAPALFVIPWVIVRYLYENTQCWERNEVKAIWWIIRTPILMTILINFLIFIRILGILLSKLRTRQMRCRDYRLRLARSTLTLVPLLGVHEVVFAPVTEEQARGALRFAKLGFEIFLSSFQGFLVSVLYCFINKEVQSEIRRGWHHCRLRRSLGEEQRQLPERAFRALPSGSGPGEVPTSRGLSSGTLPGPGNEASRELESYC

hGIPR [5] = target: T2, hGIPR; test: Functional cAMP activation in the presence of 0.1% casein (no HSA); assay type: cell-based; settings: read-out: Relative cAMP EC50, hGIPR;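 as to Relative cAMP EC50, hGIPR: intracellular cAMP rise after 30 min at 37 °C read by HTRF against a standard curve, scaled between buffer alone (0%) and top control ligand concentration (100%), four-parameter fit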;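 as to Relative cAMP EC50, hGLP-1R: intracellular cAMP rise after 30 min at 37 °C read by HTRF, normalized between buffer only (0%) and maximal control ligand (100%), four-parameter variable-slope fit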;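 as to Relative cAMP EC50, hGcgR: intracellular cAMP rise after 30 min at 37 °C, read by HTRF against a cAMP standard curve, scaled from buffer only (0%) to maximal control ligand response (100%)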
[6] = in the presence of 0.1% casein (no HSA), geometric mean

hGcgR, sequence (P47871 26-477): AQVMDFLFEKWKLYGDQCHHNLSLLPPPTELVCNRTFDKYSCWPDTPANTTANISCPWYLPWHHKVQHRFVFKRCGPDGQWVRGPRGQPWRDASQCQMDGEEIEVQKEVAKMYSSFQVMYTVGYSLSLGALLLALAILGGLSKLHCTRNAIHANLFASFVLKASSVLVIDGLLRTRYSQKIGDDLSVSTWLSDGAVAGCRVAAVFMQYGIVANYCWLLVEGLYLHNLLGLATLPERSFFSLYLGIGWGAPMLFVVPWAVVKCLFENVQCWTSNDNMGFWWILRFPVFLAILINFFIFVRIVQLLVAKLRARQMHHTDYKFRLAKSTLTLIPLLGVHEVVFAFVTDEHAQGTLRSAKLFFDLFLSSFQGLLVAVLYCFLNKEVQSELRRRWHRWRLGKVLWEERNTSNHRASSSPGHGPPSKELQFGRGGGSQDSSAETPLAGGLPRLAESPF
human GcgR, sequence (P47871 26-477): as above
T1 sequence (P43220 24-463): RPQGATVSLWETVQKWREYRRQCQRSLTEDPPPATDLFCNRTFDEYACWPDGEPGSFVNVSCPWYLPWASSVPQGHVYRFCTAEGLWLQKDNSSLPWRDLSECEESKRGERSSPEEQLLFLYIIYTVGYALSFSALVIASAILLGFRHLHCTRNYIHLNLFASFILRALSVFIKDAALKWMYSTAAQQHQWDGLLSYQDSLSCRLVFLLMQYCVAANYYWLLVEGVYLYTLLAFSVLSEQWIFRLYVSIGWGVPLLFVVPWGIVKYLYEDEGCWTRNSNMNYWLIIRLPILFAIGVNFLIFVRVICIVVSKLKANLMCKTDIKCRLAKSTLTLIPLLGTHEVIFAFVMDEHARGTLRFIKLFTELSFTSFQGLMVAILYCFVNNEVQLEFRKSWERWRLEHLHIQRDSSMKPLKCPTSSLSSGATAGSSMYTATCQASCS

Compound | EC50 (hGLP-1R [1]) | CL/F (in vivo) | half-life (in vivo) | EC50 (human GcgR) | Body weight (%) ([2]; 14 days) | EC50 (hGLP-1R [3]; [6]) | EC50 (hGcgR; [6]) | EC50 (hGIPR [4]) | EC50 (hGIPR [5]; [6]) | Body weight (%) ([2]; 15 days) | Body weight (%) ([2]; 9 days) | EC50 (hGLP-1R [3]) | EC50 (hGcgR) | EC50 (hGIPR [5])
CC[C@H](C)[C@H](NC(=O)[C@H](Cc1ccccc1)NC(=O)[C@H](CCCN)NC(=O)C(C)(C)NC(=O)[C@H](CCC(N)=O)NC(=O)[C@H](C)NC(=O)[C@H](CCCCNC(=O)COCCOCCNC(=O)CC[C@H](NC(=O)CCCCCCCCCCCCCCCCC(=O)O)C(=O)O)NC(=O)[C@H](CCCN)NC(=O)[C@H](CC(=O)O)NC(=O)[C@H](CC(C)C)NC(=O)[C@](C)(CC(C)C)NC(=O)[C@@H](NC(=O)[C@](C)(CO)NC(=O)[C@H](Cc1ccc(O)cc1)NC(=O)[C@H](CC(=O)O)NC(=O)[C@H](CO)NC(=O)[C@@H](NC(=O)[C@](C)(Cc1ccccc1F)NC(=O)[C@@H](NC(=O)CNC(=O)[C@H](CCC(N)=O)NC(=O)C(C)(C)NC(=O)[C@@H](N)Cc1ccc(O)cc1)[C@@H](C)O)[C@@H](C)O)[C@@H](C)CC)C(=O)N[C@H](CCC(=O)O)C(=O)N[C@@](C)(Cc1ccc(O)cc1)C(=O)N[C@@H](CC(C)C)C(=O)N[C@@H](CC(C)C)C(=O)N[C@@H](CCC(=O)O)C(=O)NCC(=O)NCC(=O)N1CCC[C@H]1C(=O)N[C@@H](CO)C(=O)N[C@@H](CO)C(=O)NCC(=O)N[C@@H](CCC(=O)O)C(=O)N1CCC[C@H]1C(=O)N1CCC[C@H]1C(=O)N1CCC[C@H]1C(=O)N[C@@H](CO)C(N)=O [Example 368] (H-Y[Aib]QGT[αMePhe(2-F)]TSDY[αMeS]I[αMeL]LD[Orn]K([AEEA-γGlu-C18 diacid])AQ[Aib][Orn]FI[dE][αMeY]LLEGGPSSGEPPPS-NH2) | 37.4 nM | 7.33 mL/min/kg | 576 min | 111 nM | 52.52 +/− 2.49**** % | 0.242 nM | 0.481 nM | 2.62 nM | 0.0121 nM |  |  |  |  | 
CC[C@H](C)[C@H](NC(=O)[C@H](Cc1ccccc1)NC(=O)[C@H](CCCN)NC(=O)C(C)(C)NC(=O)[C@H](CCC(N)=O)NC(=O)[C@H](C)NC(=O)[C@H](CCCCNC(=O)COCCOCCNC(=O)CC[C@H](NC(=O)CCCCCCCCCCCCCCCCC(=O)O)C(=O)O)NC(=O)[C@H](CCCN)NC(=O)[C@H](CC(=O)O)NC(=O)[C@H](CC(C)C)NC(=O)[C@](C)(CC(C)C)NC(=O)[C@@H](NC(=O)[C@](C)(CO)NC(=O)[C@H](Cc1ccncc1)NC(=O)[C@H](CC(=O)O)NC(=O)[C@H](CO)NC(=O)[C@@H](NC(=O)[C@](C)(Cc1ccccc1F)NC(=O)[C@@H](NC(=O)CNC(=O)[C@H](CCC(N)=O)NC(=O)C(C)(C)NC(=O)[C@@H](N)Cc1ccc(O)cc1)[C@@H](C)O)[C@@H](C)O)[C@@H](C)CC)C(=O)N[C@H](CCC(=O)O)C(=O)N[C@@](C)(Cc1ccc(O)cc1)C(=O)N[C@@H](CC(C)C)C(=O)N[C@@H](CC(C)C)C(=O)N[C@@H](CCC(=O)O)C(=O)NCC(=O)NCC(=O)N1CCC[C@H]1C(=O)N[C@@H](CO)C(=O)N[C@@H](CO)C(=O)NCC(=O)N[C@@H](CCC(=O)O)C(=O)N1CCC[C@H]1C(=O)N1CCC[C@H]1C(=O)N1CCC[C@H]1C(=O)N[C@@H](CO)C(N)=O [Example 369] (H-Y[Aib]QGT[αMePhe(2-F)]TSD[4Pal][αMeS]I[αMeL]LD[Orn]K([AEEA-γGlu-C18 diacid])AQ[Aib][Orn]FI[dE][αMeY]LLEGGPSSGEPPPS-NH2) | 26.8 nM | 11.3 mL/min/kg | 492 min | 111 nM | 52.91 +/− 2.17**** % | 0.301 nM | 0.873 nM | 4.58 nM | 0.0263 nM |  |  |  |  | 
CC[C@H](C)[C@H](NC(=O)[C@H](CC(C)C)NC(=O)[C@](C)(Cc1ccc(O)cc1)NC(=O)[C@@H](CCC(=O)O)NC(=O)[C@@H](NC(=O)[C@H](Cc1ccccc1)NC(=O)[C@H](CCCN)NC(=O)C(C)(C)NC(=O)[C@H](CCC(N)=O)NC(=O)[C@H](C)NC(=O)[C@H](CCCCNC(=O)COCCOCCNC(=O)CC[C@H](NC(=O)CCCCCCCCCCCCCCCCC(=O)O)C(=O)O)NC(=O)[C@H](CCCN)NC(=O)[C@H](CC(=O)O)NC(=O)[C@H](CC(C)C)NC(=O)[C@](C)(CC(C)C)NC(=O)[C@@H](NC(=O)[C@](C)(CO)NC(=O)[C@H](Cc1ccncc1)NC(=O)[C@H](CC(=O)O)NC(=O)[C@H](CO)NC(=O)[C@@H](NC(=O)[C@](C)(Cc1ccccc1F)NC(=O)[C@@H](NC(=O)CNC(=O)[C@H](CCC(N)=O)NC(=O)C(C)(C)NC(=O)[C@@H](N)Cc1ccc(O)cc1)[C@@H](C)O)[C@@H](C)O)[C@@H](C)CC)[C@@H](C)CC)C(=O)N[C@@H](CCC(=O)O)C(=O)NCC(=O)NCC(=O)N1CCC[C@H]1C(=O)N[C@@H](CO)C(=O)N[C@@H](CO)C(=O)NCC(=O)N[C@@H](CCC(=O)O)C(=O)N1CCC[C@H]1C(=O)N1CCC[C@H]1C(=O)N1CCC[C@H]1C(=O)N[C@@H](CCC(=O)O)C(N)=O [Example 378] (H-Y[Aib]QGT[αMePhe(2-F)]TSD[4Pal][αMeS]I[αMeL]LD[Orn]K([AEEA-γGlu-C18 diacid])AQ[Aib][Orn]FI[dE][αMeY]LIEGGPSSGEPPPE-NH2) | 18.8 nM | 3.83 mL/min/kg | 492 min | 176 nM |  | 0.251 nM | 1.45 nM | 2.15 nM | 0.0213 nM | 68.84 +/− 1.37**** % |  |  |  | 
H-Y[Aib]QGT[αMePhe(2-F)]TSD[4Pal]SI[αMeL]LD[Orn]K([AEEA-γGlu-C18 diacid])AQ[αMe4Pal][Orn]FI[dE][αMeY]LIEGGPSSGEPPPEEG-NH2 [Example 475] | 18.6 nM | 3.5 mL/min/kg | 822 min | 254 nM |  |  |  | 1.85 nM |  |  | 69.34 ± 2.99 % | 0.254 nM | 2.24 nM | 0.0173 nM
H-Y[Aib]QGT[αMePhe(2-F)]TSD[4Pal][αMeS]I[αMeL]LD[Orn]K([AEEA-AEEA-γGlu-C18 diacid])AQ[Aib][Orn]FI[dE][αMeY]LIEGGPSSGAPEPSEG-NH2 [Example 472] | 7.88 nM | 7.33 mL/min/kg | 564 min | 229 nM |  |  |  | 0.927 nM |  |  | 76.13 ± 2.28 % | 0.171 nM | 2.73 nM | 0.015 nM
H-Y[Aib]QGT[αMePhe(2-F)]TSD[4Pal][αMeS]I[αMeL]LD[Orn]K([AEEA-γGlu-C18 diacid])AQ[Aib][Orn]FI[dE][αMeY]LIEGGPSSGEPPPEEG-NH2 [Example 462] | 12.9 nM | 10 mL/min/kg | 660 min | 183 nM |  |  |  | 1.62 nM |  |  | 73.68 ± 2.82 % | 0.204 nM | 1.69 nM | 0.0148 nM
H-Y[Aib]QGT[αMePhe(2-F)]TSD[4Pal][αMeS]I[αMeL]LD[Orn]K([AEEA-γGlu-C18 diacid])AQ[Aib][Orn]FI[dE][αMeY]LIEGGPSSGEPPPSEG-NH2 [Example 401] | 12 nM | 16.3 mL/min/kg | 396 min | 111 nM |  |  |  | 1.71 nM |  | 71.54 ± 3.32 % |  | 0.213 nM | 1.99 nM | 0.0183 nM
Y[Aib]QGT[αMePhe(2-F)]TSD[4Pal][αMeS]I[αMeL]LD[Orn]K([AEEA-γGlu-C18 diacid])AQ[Aib][Orn]FI[dE]YLIEGGPSSGEPPPSEG-NH2 [Example 463] | 24.7 nM | 16.2 mL/min/kg | 498 min | 496 nM |  |  |  | 6.36 nM |  |  | 83.31 ± 2.10 % | 0.362 nM | 4.27 nM | 0.0558 nM
Y[Aib]QGT[αMePhe(2-F)]TSD[4Pal][αMeS]I[αMeL]LD[Orn]K([AEEA-γGlu-C18 diacid])AQ[Aib][Orn]FI[dE][αMeY]LIEGGPSSGAPEPSEG-NH2 [Example 429] | 12.1 nM | 10.7 mL/min/kg | 468 min | 138 nM |  |  |  | 1.89 nM |  | 70.20 ± 1.63 % | 74.66 ± 3.87 % | 0.178 nM | 1.19 nM | 0.0142 nM
